This is an account of results in PubChem BioAssay (NCI).

“And” between values parts separate entries of the source, which are not always exact repeats. Equal entries are not always repeated.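 Compound exposure: 48 hours, 5 concentrations, 96-well plates. GI50 marks 50% less growth. Definition used: TGI = concentration required for complete inhibition of growth.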 *1 amine or outer side, *2 acyl side, *3 side chain or, on linkers, in order; H or OH if unused. Where a SMILES comes first, the peptide text is derived from it. Bridges are numbered along the chain shown (N, C = ends). Roman numbers before positions name the chains, in order. [ ]: non-standard residue; d: D form. Actinocin(9to1) = Cc1c2oc3c(C)ccc(C(=O)[*:1])c3nc-2c(C(=O)[*:2])c(N)c1=O; NMeV = CN[CH](C(=O)O)C(C)C; Sar = CNCC(=O)O A value given as a limit tells only on which side of the number the result lay.

Among the test systems are MOLT-4 leukemia; BT-549 breast; UACC-257 melanoma; HOP-62 NSCLC; MDA-N; LOX IMVI melanoma; HS 578T breast; TK-10 renal; A549 NSCLC; M14 melanoma; COLO 205 colon; ACHN renal; SF-295 CNS; HCT-15 colon; DU-145 prostate; HOP-92 NSCLC.
Test in all cases: NCI tumour cell line growth inhibition, 48 h

`CC(C)(C)OC(=O)N/C(C=O)=C\C1CCCCC1`: the TGI in the experiment with MOLT-4 leukemia was 52 µM; in the experiment on BT-549 breast, 70.6 µM; in the experiment on UACC-257 melanoma, 48 µM; in the experiment with HOP-62 NSCLC, 58.9 µM; in the experiment with MDA-N, 50.3 µM; in the experiment with LOX IMVI melanoma, 29.9 µM. In addition, the TGI in the experiment with HS 578T breast was 84.7 µM; in the experiment with TK-10 renal it was 32.9 µM; in the experiment on A549 NSCLC it was greater than 100 µM; in the experiment on M14 melanoma, 30.4 µM; with COLO 205 colon, 36.8 µM; in the experiment on ACHN renal, 86.4 µM. Also, the TGI in the experiment with SF-295 CNS came to 99.3 µM; in the experiment on HCT-15 colon, 41.8 µM; with DU-145 prostate, 95.9 µM.

In the case of `Cc1c2oc3c(C)ccc(C(=O)NC4C(=O)NC(Cc5ccccc5)C(=O)N5CCCC5C(=O)N(C)CC(=O)N(C)C(C(C)C)C(=O)OC4C)c3nc-2c(C(=O)NC2C(=O)NC(Cc3ccccc3)C(=O)N3CCCC3C(=O)N(C)CC(=O)N(C)C(C(C)C)C(=O)OC2C)c(N)c1=O` (centres undefined) (I: TFP[Sar][NMeV] / II: TFP[Sar][NMeV]; ester I:1-I:C, II:1-II:C; linker I:N-II:N via Actinocin(9to1); configuration not given here), the TGI with MOLT-4 leukemia was less than 0.001 µM; with BT-549 breast, 0.0135 µM; in the experiment on UACC-257 melanoma, 0.0577 µM; in the experiment with HOP-62 NSCLC, 0.102 µM; in the experiment with MDA-N, 0.0442 µM; with HS 578T breast, 0.0472 µM and 0.055 µM. For the same compound, the TGI in the experiment on TK-10 renal was 1.65 µM and 5.66 µM; in the experiment on A549 NSCLC, 0.0252 µM; in the experiment on M14 melanoma it was 0.0399 µM and 0.0936 µM; with COLO 205 colon, 0.0112 µM and 0.0174 µM; with ACHN renal, 1.21 µM and 1.98 µM; in the experiment with SF-295 CNS it was 0.0465 µM and 0.413 µM. In addition, the results for the GI50 with TK-10 renal, in the experiment on M14 melanoma and in the experiment on HCT-15 colon were 0.0102 µM, less than 0.001 µM and 0.017 µM, respectively.

In the case of `Cc1ccc(S(=O)(=O)NC(CCC(=O)NNc2ccccc2)C(=O)NNc2ccccc2)cc1` (centres undefined), the TGI in the experiment with MOLT-4 leukemia, with BT-549 breast, in the experiment on UACC-257 melanoma, with HOP-62 NSCLC, in the experiment on MDA-N and with LOX IMVI melanoma was greater than 100 µM throughout. In addition, the TGI in the experiment with HS 578T breast is greater than 100 µM; with TK-10 renal, 46.5 µM; in the experiment on A549 NSCLC, 48.8 µM; in the experiment on M14 melanoma it was 78.8 µM; in the experiment on COLO 205 colon it was 54.1 µM; in the experiment on ACHN renal, greater than 100 µM. Also, the TGI with HOP-92 NSCLC, with SF-295 CNS and with HCT-15 colon was greater than 100 µM throughout.

With `NS(=O)(=O)c1nc(S(=O)(=O)O)c2[nH]cnc2n1`, the TGI in the experiment with MOLT-4 leukemia, with BT-549 breast, in the experiment on UACC-257 melanoma, in the experiment with HOP-62 NSCLC, in the experiment with MDA-N and with LOX IMVI melanoma was greater than 100 µM in each case. Further, the TGI with HS 578T breast, in the experiment on TK-10 renal, with A549 NSCLC, with M14 melanoma, in the experiment on COLO 205 colon and with ACHN renal was greater than 100 µM in each case. The TGI in the experiment on HOP-92 NSCLC, in the experiment on SF-295 CNS and in the experiment with HCT-15 colon was greater than 100 µM throughout.

As to `CCN1C/C(=C\c2ccc(Cl)cc2)c2nc(N)c(C#N)c(-c3ccc(Cl)cc3)c2C1`, the TGI with MOLT-4 leukemia, with BT-549 breast, in the experiment with UACC-257 melanoma, in the experiment on HOP-62 NSCLC, in the experiment with MDA-N and with LOX IMVI melanoma was greater than 100 µM in each case. Further, the TGI with HS 578T breast, in the experiment on TK-10 renal, in the experiment on A549 NSCLC, with M14 melanoma, in the experiment with COLO 205 colon and with ACHN renal was greater than 100 µM throughout. Besides, the TGI in the experiment with SF-295 CNS, with HCT-15 colon and in the experiment with DU-145 prostate was greater than 100 µM in each case.

With `CN1/C(=C/C=C/C=C/C=C2C(=O)c3ccccc3C2=O)C(C)(C)c2ccccc21`, the TGI is 81 µM with BT-549 breast; 54.1 µM with UACC-257 melanoma; greater than 100 µM in the experiment on HOP-62 NSCLC; greater than 100 µM in the experiment with MDA-N; greater than 100 µM in the experiment with LOX IMVI melanoma; greater than 100 µM with HS 578T breast. Further, the TGI was greater than 100 µM in the experiment with TK-10 renal; greater than 100 µM with A549 NSCLC; greater than 100 µM in the experiment with M14 melanoma; greater than 100 µM in the experiment on COLO 205 colon; greater than 100 µM in the experiment with ACHN renal; 58 µM with HOP-92 NSCLC. In addition, the TGI in the experiment on SF-295 CNS, with HCT-15 colon and in the experiment on DU-145 prostate was greater than 100 µM in each case.

Regarding `CC1CC/C(=C\c2ccc(F)cc2)C2=C1C(c1ccc(F)cc1)N1C(=O)CSC1=N2` (centres undefined), the TGI in the experiment with MOLT-4 leukemia was 60.6 µM; with BT-549 breast it was greater than 100 µM; in the experiment with UACC-257 melanoma it was greater than 100 µM; in the experiment on MDA-N, greater than 100 µM; in the experiment with LOX IMVI melanoma, greater than 100 µM; in the experiment on HS 578T breast, greater than 100 µM. For the same compound, the TGI in the experiment on TK-10 renal, with M14 melanoma, with COLO 205 colon, with ACHN renal, in the experiment with SF-295 CNS and with HCT-15 colon was greater than 100 µM throughout. In addition, in the experiment on DU-145 prostate, the TGI is greater than 100 µM.

For `COC(=O)C1=C(OC(=O)/C(=C/c2ccccc2)c2ccc(OC)cc2)C(C(=O)OC)[C@@]2(O)[C@@H](C(=O)OC)[C@H](C)C[C@@H]1[C@@H]2C(=O)OC` (some centres undefined), the TGI in the experiment on MOLT-4 leukemia, in the experiment on BT-549 breast, in the experiment on UACC-257 melanoma, in the experiment on HOP-62 NSCLC, in the experiment on MDA-N and in the experiment on LOX IMVI melanoma was greater than 100 µM each time. In addition, the TGI in the experiment with HS 578T breast is 99.3 µM; in the experiment with TK-10 renal it was greater than 100 µM; in the experiment on A549 NSCLC, greater than 100 µM; in the experiment on M14 melanoma it was greater than 100 µM; in the experiment on COLO 205 colon, greater than 100 µM; in the experiment with ACHN renal it was greater than 100 µM. The TGI in the experiment with SF-295 CNS, in the experiment with HCT-15 colon and in the experiment on DU-145 prostate was greater than 100 µM each time.

Regarding `CSC(SC)=C(C#N)C(=O)Nc1cccc(Cl)c1`, the TGI in the experiment with MOLT-4 leukemia was 87.2 µM; in the experiment with BT-549 breast, greater than 100 µM; in the experiment on UACC-257 melanoma it was greater than 100 µM; in the experiment with HOP-62 NSCLC, greater than 100 µM; in the experiment on MDA-N, greater than 100 µM; in the experiment on LOX IMVI melanoma, greater than 100 µM. Besides, the TGI in the experiment on HS 578T breast, in the experiment on TK-10 renal, with A549 NSCLC, in the experiment on M14 melanoma, with COLO 205 colon and with ACHN renal was greater than 100 µM each time. Further, the results for the TGI in the experiment with HOP-92 NSCLC, with SF-295 CNS and in the experiment on HCT-15 colon were 55.6 µM, greater than 100 µM and greater than 100 µM, respectively.

Turning to `Nc1cc2c(c3ccccc13)C(CCl)CN2C(=O)c1cc2cc(NC(=O)Nc3ccc4[nH]c(C(=O)N5CC(CCl)c6c5cc(N)c5ccccc65)cc4c3)ccc2[nH]1` (centres undefined), the TGI came out at 4.53 µM with BT-549 breast; 3.24 µM in the experiment with UACC-257 melanoma; 1.55 µM in the experiment with HOP-62 NSCLC; 2.49 µM in the experiment on MDA-N; 12 µM with LOX IMVI melanoma; 12.3 µM in the experiment on HS 578T breast. Further, the TGI was 3.75 µM in the experiment with TK-10 renal; 0.644 µM in the experiment on M14 melanoma; 2.07 µM in the experiment with COLO 205 colon; greater than 100 µM in the experiment on HOP-92 NSCLC; 2.99 µM in the experiment with SF-295 CNS; greater than 32.3 µM with HCT-15 colon. The compound also came in with a TGI with DU-145 prostate of 0.704 µM.

On to `O=C1CCCNn2c(nc3ncccc3c2=O)N1`, for which the TGI with MOLT-4 leukemia, with BT-549 breast, in the experiment on UACC-257 melanoma, in the experiment with HOP-62 NSCLC, in the experiment on MDA-N and in the experiment with LOX IMVI melanoma was greater than 100 µM throughout. For the same compound, the TGI in the experiment with HS 578T breast, with TK-10 renal, in the experiment with A549 NSCLC, in the experiment on M14 melanoma, in the experiment on COLO 205 colon and with ACHN renal was greater than 100 µM each time. In addition, the TGI with HOP-92 NSCLC, with SF-295 CNS and with HCT-15 colon was greater than 100 µM in each case.

On to `ClC(Cl)(Cl)C1CCOC1n1nnc2ccccc21` (centres undefined), for which the TGI is 73.8 µM in the experiment on MOLT-4 leukemia; 86 µM with BT-549 breast; greater than 100 µM in the experiment on UACC-257 melanoma; greater than 100 µM in the experiment on HOP-62 NSCLC; greater than 100 µM in the experiment on MDA-N; greater than 100 µM with HS 578T breast. Besides, the TGI in the experiment with TK-10 renal, with A549 NSCLC, in the experiment with M14 melanoma, in the experiment with COLO 205 colon, in the experiment with SF-295 CNS and with DU-145 prostate was greater than 100 µM each time.

For the compound `COc1ccc(C2C3=C(N=C4SC(C(C)=O)=C(C)N42)c2ccccc2CC3)cc1` (centres undefined), the TGI in the experiment on BT-549 breast, with UACC-257 melanoma, in the experiment on HOP-62 NSCLC, in the experiment with MDA-N, in the experiment on LOX IMVI melanoma and with HS 578T breast was greater than 100 µM in each case. Besides, the TGI with A549 NSCLC, in the experiment on M14 melanoma, in the experiment on COLO 205 colon, in the experiment on ACHN renal, with HOP-92 NSCLC and with SF-295 CNS was greater than 100 µM in each case. The TGI in the experiment with HCT-15 colon and with DU-145 prostate was greater than 100 µM throughout.

Turning to `COc1ccccc1-n1c(=O)n(C)c(=O)n1C(C)(C)C`, the TGI with MOLT-4 leukemia, with BT-549 breast, in the experiment on UACC-257 melanoma, in the experiment with MDA-N, in the experiment with LOX IMVI melanoma and in the experiment with HS 578T breast was greater than 100 µM throughout. The TGI with TK-10 renal, in the experiment on A549 NSCLC, in the experiment on M14 melanoma, in the experiment with COLO 205 colon, in the experiment on HCT-15 colon and in the experiment on DU-145 prostate was greater than 100 µM in each case.
